Data from patent publication US11407736B2 (priority 2019, dated 2022).
Where a name gives a salt, the structure may show the parent alone. Read-outs that look alike come from different tables or passages of the source.

Experiments:
L929 cells = assay: L929 cell necroptosis assay (TNFa + zVAD, CellTiter-Glo); assay type: cell-based, murine
Method in brief: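 Necroptosis was read as CellTiter-Glo luminescence 18 hours after TNFa stimulation at 37° C, 5% CO2. Prior to that, L929 cells (10K/well, plated 18 h) received fresh medium with 40 uM zVAD-fmk plus 4-fold serially diluted compound.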

RIPK1 = RIPK1 (Homo sapiens (Human), UniProt Q13546); assay: RIPK1 ADP-Glo biochemical kinase assay
Sequence of RIPK1 (Q13546 whole entry, species assumed): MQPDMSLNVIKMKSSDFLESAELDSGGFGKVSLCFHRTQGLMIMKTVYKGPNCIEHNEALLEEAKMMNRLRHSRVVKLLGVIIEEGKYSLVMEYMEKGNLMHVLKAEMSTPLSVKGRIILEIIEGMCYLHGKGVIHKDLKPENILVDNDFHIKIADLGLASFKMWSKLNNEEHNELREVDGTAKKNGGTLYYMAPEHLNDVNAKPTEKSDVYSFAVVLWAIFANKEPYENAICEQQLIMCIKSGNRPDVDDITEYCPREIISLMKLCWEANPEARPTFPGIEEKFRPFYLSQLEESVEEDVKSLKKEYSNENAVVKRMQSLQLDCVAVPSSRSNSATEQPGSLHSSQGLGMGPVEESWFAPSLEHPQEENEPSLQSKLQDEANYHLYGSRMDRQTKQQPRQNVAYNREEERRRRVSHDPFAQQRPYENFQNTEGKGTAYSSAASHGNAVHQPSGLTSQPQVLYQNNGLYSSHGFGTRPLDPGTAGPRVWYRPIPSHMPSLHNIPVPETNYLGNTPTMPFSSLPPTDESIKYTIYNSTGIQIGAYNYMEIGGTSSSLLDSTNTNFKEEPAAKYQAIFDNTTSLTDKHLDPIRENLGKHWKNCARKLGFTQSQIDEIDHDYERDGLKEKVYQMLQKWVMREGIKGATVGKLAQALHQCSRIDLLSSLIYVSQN
Description: The final reaction volume was 5.0ul.
Adding 5 μl of ADP-Glo™ terminated the reaction.

U937 cells = assay: U937 cell necroptosis assay (TNFa + zVAD, CellTiter-Glo); assay type: cell-based, human
Method in brief: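 Necroptosis was induced with TNFa at 2 ng/mL final for 18 h at 37 °C, following 1 h compound pre-incubation in the presence of zVAD-fmk (60 uM for U937 plating medium, 40 uM for L929 medium). Luminescent CellTiter-Glo signal gave relative cell survival.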

[1] = Mus musculus, L929, L929 cells, TNFa + zVAD, read-out: L929-CTG-recovery, L929, TNFa + zVAD (IC50)
[2] = read-out: RIPK1 ADP-Glo Kinase (IC50)
[3] = Homo sapiens, U-937, U937 cells, TNFa + zVAD, read-out: U937 Zvad TNF CTG Recovery, U937, TNFa + zVAD (IC50)
[4] = L929 cells, TNFa + zVAD, read-out: L929-CTG-recovery, L929, TNFa + zVAD (IC50)
[5] = U937 cells, TNFa + zVAD, read-out: U937 Zvad TNF CTG Recovery, U937, TNFa + zVAD (IC50)

| SMILES | IC50 (RIPK1; [2]) | IC50 (L929 cells; [1]) | IC50 (U937 cells; [3]) | other results |
| --- | --- | --- | --- | --- |
| CC(C)[C@H](N)C(=O)OC1(C#Cc2ccc3c(c2)N(C)C(=O)[C@@H](NC(=O)c2cc(Oc4ccccc4)ccn2)CO3)COC1 [Compound I-164, 3-4(S)-5-methyl-4-oxo-3-(4-phenoxypicolinamido)-2,3,4,5-tetrahydrobenzo[b][1,4]oxazepin-7-yl)ethynyl)oxetan-3-yl L-valinate benzenesulfonic acid salt] | 71.7 nM |  |  | IC50 (L929 cells; [4]): 31.9 nM; IC50 (U937 cells; [5]): 0.7 nM |
| CN1C(=O)[C@@H](NC(=O)c2cc(Oc3ccccc3)ccn2)COc2ccc(C#CC(C)(C)N)cc21 [Compound I-167, (S)—N-(7-(3-amino-3-methylbut-1-yn-1-yl)-5-methyl-4-oxo-2,3,4,5-tetrahydrobenzo[b][1,4]oxazepin-3-yl)-4-phenoxypicolinamide hydrochloride] |  |  |  | IC50 (L929 cells; read-out: L929-CTG-recovery, L929, TNFa + zVAD (IC50), L929 cells, TNFa + zVAD, hydrochloride): 1210 nM; IC50 (RIPK1; hydrochloride, read-out: RIPK1 ADP-Glo Kinase (IC50)): 17.5 nM; IC50 (U937 cells; read-out: U937 Zvad TNF CTG Recovery, U937, TNFa + zVAD (IC50), U937 cells, TNFa + zVAD, hydrochloride): 5.3 nM |
| CN[C@@H](C)C(=O)OC1(C#Cc2ccc3c(c2)N(C)C(=O)[C@@H](NC(=O)c2cc(Oc4ccccc4)ccn2)CO3)COC1 [Compound I-193] | 55.3 nM |  |  | IC50 (L929 cells; [4]): 7060 nM; IC50 (U937 cells; [5]): 361 nM |
| C[C@H](N)C(=O)OC1(C#Cc2ccc3c(c2)N(C)C(=O)[C@@H](NC(=O)c2cc(Oc4ccccc4)ccn2)CO3)COC1 [Compound I-194, 3-(((S)-5-methyl-4-oxo-3-(4-phenoxypicolinamido)-2,3,4,5-tetrahydrobenzo[b][1,4]oxazepin-7-yl)ethynyl)oxetan-3-yl L-alaninate trifluoroacetic acid salt] | 18.6 nM |  | 0.6 nM | IC50 (L929 cells; Mus musculus, L929 cells, TNFa + zVAD, read-out: L929-CTG-recovery, L929, TNFa + zVAD (IC50)): 32.5 nM |
| CC(C)N1CC(O)(C#Cc2ccc3c(c2)N(C)C(=O)[C@@H](NC(=O)c2cc(Oc4ccccc4)ccn2)CO3)C1 [Compound I-195, (S)—N-(7-((3-hydroxy-1-isopropylazetidin-3-yl)ethynyl)-5-methyl-4-oxo-2,3,4,5-tetrahydrobenzo[b][1,4]oxazepin-3-yl)-4-phenoxypicolinamide] | 15.3 nM |  |  | IC50 (L929 cells; Mus musculus, L929, read-out: L929-CTG-recovery, L929, TNFa + zVAD (IC50), L929 cells, TNFa + zVAD): 268 nM; IC50 (U937 cells; Homo sapiens, U-937, read-out: U937 Zvad TNF CTG Recovery, U937, TNFa + zVAD (IC50), U937 cells, TNFa + zVAD): 1.1 nM |
| CN1C(=O)[C@@H](NC(=O)c2cc(Oc3ccccc3)ccn2)COc2ccc(C#CC(C)(C)N3CCOCC3)cc21 [Compound I-206, (S)—N-(5-Methyl-7-(3-methyl-3-morpholinobut-1-yn-1-yl)-4-oxo-2,3,4,5-tetrahydrobenzo[b][1,4]oxazepin-3-yl)-4-phenoxypicolinamide] |  | 41.5 nM | 0.6 nM | IC50 (RIPK1): 55.6 nM |
| CN1C(=O)[C@@H](NC(=O)c2cc(Oc3ccccc3)ccn2)COc2ccc(C#CC3(O)CCS(=O)(=O)CC3)cc21 [Compound I-207, (S)—N-(7-((4-Hydroxy-1,1-dioxidotetrahydro-2H-thiopyran-4-yl)ethynyl)-5-methyl-4-oxo-2,3,4,5-tetrahydrobenzo[b][1,4]oxazepin-3-yl)-4-phenoxypicolinamide] | 27.9 nM | 116 nM | 0.5 nM |  |
| CN1C(=O)[C@@H](NC(=O)c2cc(Oc3ccccc3)ccn2)COc2ccc(C#CC(C)(C)N3CCCC3)cc21 [Compound I-210, (S)—N-(5-Methyl-7-(3-methyl-3-(pyrrolidin-1-yl)but-1-yn-1-yl)-4-oxo-2,3,4,5-tetrahydrobenzo[b][1,4]oxazepin-3-yl)-4-phenoxypicolinamide] | 28.6 nM | 470 nM | 4.2 nM |  |
| CN1C(=O)[C@@H](NC(=O)n2cc(Cc3ccccc3)cn2)COc2ccc(C#CC(C)(C)C)cc21 [Compound I-212, (S)-4-Benzyl-N-(7-(3,3-dimethylbut-1-yn-1-yl)-5-methyl-4-oxo-2,3,4,5-tetrahydrobenzo[b][1,4]oxazepin-3-yl)-1H-pyrazole-1-carboxamide] | 154 nM | 267 nM | 4.3 nM |  |
| CN1C(=O)[C@@H](NC(=O)n2cc(Cc3ccccc3)cn2)COc2ccc(C#CC(C)(C)O)cc21 [Compound I-213, (S)-4-Benzyl-N-(7-(3-hydroxy-3-methylbut-1-yn-1-yl)-5-methyl-4-oxo-2,3,4,5-tetrahydrobenzo[b][1,4]oxazepin-3-yl)-1H-pyrazole-1-carboxamide] | 35.2 nM | 45.5 nM | 1 nM |  |
| CN1C(=O)[C@@H](NC(=O)n2cc(Cc3ccccc3)cn2)COc2ccc(C#Cc3cccnc3)cc21 [Compound I-214, (S)-4-Benzyl-N-(5-methyl-4-oxo-7-(pyridin-3-ylethynyl)-2,3,4,5-tetrahydrobenzo[b][1,4]oxazepin-3-yl)-1H-pyrazole-1-carboxamide] | 76.2 nM | 352 nM | 4 nM |  |

More lines, in order of falling IC50 (RIPK1; [2]), values ahead:

| IC50 (RIPK1; [2]) | SMILES | IC50 (L929 cells; [1]) | IC50 (U937 cells; [3]) | other results |
| --- | --- | --- | --- | --- |
| 27.8 nM | CN1C(=O)[C@@H](NC(=O)n2cc(Cc3ccc(F)cc3)cn2)COc2ccc(C#CC3(O)CCOCC3)cc21 [Compound I-175, (S)-4-(4-fluorobenzyl)-N-(7-((4-hydroxytetrahydro-2H-pyran-4-yl)ethynyl)-5-methyl-4-oxo-2,3,4,5-tetrahydrobenzo[b][1,4]oxazepin-3-yl)-1H-pyrazole-1-carboxamide] | 107 nM | 9 nM |  |
| 25.3 nM | CC(C)[C@H](N)C(=O)OC1(C#Cc2ccc3c(c2)N(C)C(=O)[C@@H](NC(=O)c2cc(Oc4ccccc4)ccn2)CO3)COC1 [Compound I-160, 3-(((S)-5-methyl-4-oxo-3-(4-phenoxypicolinamido)-2,3,4,5-tetrahydrobenzo[b][1,4]oxazepin-7-yl)ethynyl)oxetan-3-yl L-valinate] | 44.2 nM | 0.9 nM |  |
| 23.4 nM | CN1C(=O)[C@@H](NC(=O)c2cc(Oc3ccccc3)ccn2)COc2ccc(C#Cc3cn(C)cn3)cc21 [Compound I-203, (S)—N-(5-methyl-7-((1-methyl-1H-imidazol-4-yl)ethynyl)-4-oxo-2,3,4,5-tetrahydrobenzo[b][1,4]oxazepin-3-yl)-4-phenoxypicolinamide] | 4 nM | 0.4 nM |  |
| 19.7 nM | CC(=O)N1CC(F)(C#Cc2ccc3c(c2)N(C)C(=O)[C@@H](NC(=O)c2cc(Oc4ccccc4)ccn2)CO3)C1 [Compound I-191, (S)—N-(7-((1-acetyl-3-fluoroazetidin-3-yl)ethynyl)-5-methyl-4-oxo-2,3,4,5-tetrahydrobenzo[b][1,4]oxazepin-3-yl)-4-phenoxypicolinamide] | 21.5 nM | 0.3 nM |  |
| 17.5 nM | COC(=O)C#Cc1ccc2c(c1)N(C)C(=O)[C@@H](NC(=O)c1cc(Oc3ccccc3)ccn1)CO2 [Compound I-159, Methyl (S)-3-(5-methyl-4-oxo-3-(4-phenoxypicolinamido)-2,3,4,5-tetrahydrobenzo[b][1,4]oxazepin-7-yl)propiolate] | 16100 nM | 21 nM |  |
| 17.2 nM | CN1C(=O)[C@@H](NC(=O)c2cc(Oc3ccccc3)ccn2)COc2ccc(C#CC3(O)C[S+]([O-])C3)cc21 (stereo partly drawn) [Compound I-208, (S)—N-(7-((3-Hydroxy-1-oxidothietan-3-yl)ethynyl)-5-methyl-4-oxo-2,3,4,5-tetrahydrobenzo[b][1,4]oxazepin-3-yl)-4-phenoxypicolinamide] | 97.5 nM | 0.6 nM |  |
| 11.2 nM | CN1C(=O)[C@@H](NC(=O)c2cc(Oc3ccccc3)ccn2)COc2ccc(C#CC3(OC(=O)CCC(=O)O)COC3)cc21 [Compound I-165, (S)-4-((3-((5-methyl-4-oxo-3-(4-phenoxypicolinamido)-2,3,4,5-tetrahydrobenzo[b][1,4]oxazepin-7-yl)ethynyl)oxetan-3-yl)oxy)-4-oxobutanoic acid 2-amino-2-(hydroxymethyl)propane-1,3-diol salt] |  |  | IC50 (L929 cells; [4]): 47.1 nM; IC50 (U937 cells; [5]): 0.9 nM |
